In article PMC11109052, “Metabolism characterization and toxicity of N-hydap, a marine candidate drug for lung cancer therapy by LC–MS method” (Natural Products and Bioprospecting, 2024):

How the values were obtained:
[1] = test system: Ugt1a9; assay: Real-time PCR mRNA level after 7 days gavage: Ugt1a9; assay type: in vivo, mice; design: key to UGT1A9 mNA expression: ↑: up-regulation; ↓: down-regulation; –: no change
Description: Mice were randomly divided into four groups, with eight animals in each group. The mice received oral pretreatment with N-hydap for 7 days at doses of 2, 5, and 10 mg/kg/day, which were considered as the low dose, medium dose, and high dose, respectively. Correspondingly, the control group received PBS. On the 8th day, the liver and kidneys were removed, and organs from eight mice per group were combined to prepare MLMs and MKMs using the detailed procedures above. Subsequently, we determined the activity of CYP and UGT enzymes by specific substrate metabolized with MLMs (0.5 mg/mL) and MKMs (0.2 mg/mL) in vitro. Specifically, the following selective substrates were used for the respective enzymes: PH (1 μM) for CYP1A2, DIC (1 μM) for CYP2C9, MP (90 μM) for CYP2C19, DM (1 μM) for CYP2D6, CZX (10 μM) for CYP2E1, Tes (1 μM) for CYP3A4, SN38 (1 μM) for UGT1A1, CACD (100 μM) for UGT1A3, Sero (20 μM) for UGT1A6, and Prop (1 μM) for UGT1A9. All substrates were dissolved in methanol or DMSO. The incubation procedure was carried out as mentioned above, and the reaction was terminated with VER (20 ng/mL) in ESI+ mode and CLP (200 ng/mL) in ESI− mode. In the ex vivo experiments, the activity of enzymes was measured by quantifying the production of various metabolites (nM/mg protein/min). The metabolites and their corresponding enzymes are as follows: APAP from PH, 4-OH-DIC from DIC, 4-OH-MP from MP, DXO from DM, 6-OH-CZX from CZX, 6-OH-Tes from Tes, SN38-G from SN38, CACD-G from CACD, Sero-G from Sero, Prop-G from Prop. The measurements were performed using multiple reaction monitoring (MRM) transitions, which are specific mass spectrometry transitions used for quantification. […]
Total RNA from liver and kidney samples taken after 7 days of N-hydap gavage was extracted using the Animal Total RNA Isolation Kit (Foregene, Chengdu, Sichuan, China) following the manufacturer’s instructions. The concentrations of total RNA were determined by a nucleic acid concentration tester at 260/280 nm. […]

[2] = target: T1, UGT2B7 (Homo sapiens, UniProt P16662); assay: Incubation with recombinant human UGT isoforms: UGT2B7; assay type: in vitro ADME; conditions: recombinant UGT 2 μg/mL
T1 construct: purchased Cypex (Scotland, UK)
Description: (§1) Incubation of N-hydap (2.5 μM) with eight recombinant human CYP enzymes (CYP1A2, CYP2B6, CYP2C9, CYP2C19, CYP2D6, CYP3A4, CYP4A11 and CYP4F2) at three enzyme concentrations (2, 4, and 20 μg/mL) was conducted following the same procedure as described above for microsomes. Subsequently, incubation with N-hydap (1, 2.5, and 6 μM) and twelve recombinant human UGT isoforms (UGT1A1, UGT1A3, UGT1A4, UGT1A6, UGT1A7, UGT1A8, UGT1A9, UGT1A10, UGT2B4, UGT2B7, UGT2B15 and UGT2B17) was performed, with the enzyme concentration used at 2 μg/mL. All reactions were carried out in triplicate.

[3] = test system: Ugt1a9; assay: DME activity ex vivo in MLMs and MKMs: UGT1A9 (Prop-G from Prop); design: species or system mice; key to UGT1A9 Enzymatic activity: ↑: up-regulation; ↓: down-regulation; –: no change
Description: (§2) Mice were randomly divided into four groups, with eight animals in each group. The mice received oral pretreatment with N-hydap for 7 days at doses of 2, 5, and 10 mg/kg/day, which were considered as the low dose, medium dose, and high dose, respectively. Correspondingly, the control group received PBS. On the 8th day, the liver and kidneys were removed, and organs from eight mice per group were combined to prepare MLMs and MKMs using the detailed procedures above. Subsequently, we determined the activity of CYP and UGT enzymes by specific substrate metabolized with MLMs (0.5 mg/mL) and MKMs (0.2 mg/mL) in vitro. Specifically, the following selective substrates were used for the respective enzymes: PH (1 μM) for CYP1A2, DIC (1 μM) for CYP2C9, MP (90 μM) for CYP2C19, DM (1 μM) for CYP2D6, CZX (10 μM) for CYP2E1, Tes (1 μM) for CYP3A4, SN38 (1 μM) for UGT1A1, CACD (100 μM) for UGT1A3, Sero (20 μM) for UGT1A6, and Prop (1 μM) for UGT1A9. All substrates were dissolved in methanol or DMSO. The incubation procedure was carried out as mentioned above, and the reaction was terminated with VER (20 ng/mL) in ESI+ mode and CLP (200 ng/mL) in ESI− mode. In the ex vivo experiments, the activity of enzymes was measured by quantifying the production of various metabolites (nM/mg protein/min). The metabolites and their corresponding enzymes are as follows: APAP from PH, 4-OH-DIC from DIC, 4-OH-MP from MP, DXO from DM, 6-OH-CZX from CZX, 6-OH-Tes from Tes, SN38-G from SN38, CACD-G from CACD, Sero-G from Sero, Prop-G from Prop. The measurements were performed using multiple reaction monitoring (MRM) transitions, which are specific mass spectrometry transitions used for quantification. The optimized parameters for each metabolite, such as declustering potential and collision energy, were described in Supplementary Table 1. All experiments were conducted in triplicate, to ensure accuracy and reproducibility.

[4] = test system: CYP2C19; assay: DME activity ex vivo in MLMs and MKMs: CYP2C19 (4-OH-MP from MP); design: species or system mice; key to CYP2C19 Enzymatic activity: ↑: up-regulation; ↓: down-regulation; –: no change
Description: as §2

[5] = target: T2, recombinant human CYP enzymes (CYP1A2, CYP2B6, CYP2C9, CYP2C19, CYP2D6, CYP3A4, CYP4A11 and CYP4F2) (Homo sapiens, UniProt P08684); assay: Incubation with 8 recombinant human CYP enzymes; assay type: in vitro ADME; conditions: Table 4 experimental column
T2 construct: purchased Cypex (Scotland, UK)
Description: as §1

[6] = target: T3, recombinant human CYP enzymes (CYP1A2, CYP2B6, CYP2C9, CYP2C19, CYP2D6, CYP3A4, CYP4A11 and CYP4F2) (Homo sapiens, UniProt P05177); assay: Incubation with 8 recombinant human CYP enzymes; assay type: in vitro ADME; conditions: Table 4 experimental column
T3 construct: purchased Cypex (Scotland, UK)
Description: as §1

[7] = target: T4, recombinant human CYP enzymes (CYP1A2, CYP2B6, CYP2C9, CYP2C19, CYP2D6, CYP3A4, CYP4A11 and CYP4F2) (Homo sapiens, UniProt P11712); assay: Incubation with 8 recombinant human CYP enzymes; assay type: in vitro ADME; conditions: Table 4 experimental column
T4 construct: purchased Cypex (Scotland, UK)
Description: as §1

[8] = test system: recombinant human CYP enzymes (CYP1A2, CYP2B6, CYP2C9, CYP2C19, CYP2D6, CYP3A4, CYP4A11 and CYP4F2); assay: Incubation with 8 recombinant human CYP enzymes; assay type: in vitro ADME; conditions: N-hydap 2.5 μM; enzyme concentrations of 2 and 4 μg/mL; all recombinant CYPs
Description: as §1

[9] = liver microsomes of mice pretreated 7 days p.o.

T2 sequence (P08684 whole entry): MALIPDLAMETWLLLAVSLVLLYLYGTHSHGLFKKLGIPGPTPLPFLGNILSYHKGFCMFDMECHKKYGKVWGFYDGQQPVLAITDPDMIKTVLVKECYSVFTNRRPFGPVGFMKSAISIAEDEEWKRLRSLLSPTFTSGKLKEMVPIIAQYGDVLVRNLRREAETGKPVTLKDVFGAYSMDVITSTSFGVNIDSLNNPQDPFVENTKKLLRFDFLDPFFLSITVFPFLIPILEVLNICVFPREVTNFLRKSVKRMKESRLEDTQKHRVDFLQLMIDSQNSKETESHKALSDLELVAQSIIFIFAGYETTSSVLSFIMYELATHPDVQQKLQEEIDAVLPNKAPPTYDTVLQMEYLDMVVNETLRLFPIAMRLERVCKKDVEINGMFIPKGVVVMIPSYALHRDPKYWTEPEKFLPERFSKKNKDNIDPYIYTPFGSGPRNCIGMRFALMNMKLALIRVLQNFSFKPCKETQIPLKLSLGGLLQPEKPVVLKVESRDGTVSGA
T1 sequence (P16662 24-529): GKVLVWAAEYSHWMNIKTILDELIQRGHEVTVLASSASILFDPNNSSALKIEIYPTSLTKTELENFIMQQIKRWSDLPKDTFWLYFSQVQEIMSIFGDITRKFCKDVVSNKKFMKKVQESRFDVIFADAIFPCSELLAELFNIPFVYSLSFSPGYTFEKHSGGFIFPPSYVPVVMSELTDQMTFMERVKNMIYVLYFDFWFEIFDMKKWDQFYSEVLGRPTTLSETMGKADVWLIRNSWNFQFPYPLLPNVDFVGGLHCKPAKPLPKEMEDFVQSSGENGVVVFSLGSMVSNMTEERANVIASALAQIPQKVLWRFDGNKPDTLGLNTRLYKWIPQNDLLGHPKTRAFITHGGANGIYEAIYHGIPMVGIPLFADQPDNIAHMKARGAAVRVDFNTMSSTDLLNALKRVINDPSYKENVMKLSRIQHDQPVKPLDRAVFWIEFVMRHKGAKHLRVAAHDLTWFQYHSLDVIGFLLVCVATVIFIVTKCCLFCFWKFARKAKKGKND
T3 sequence (P05177 whole entry): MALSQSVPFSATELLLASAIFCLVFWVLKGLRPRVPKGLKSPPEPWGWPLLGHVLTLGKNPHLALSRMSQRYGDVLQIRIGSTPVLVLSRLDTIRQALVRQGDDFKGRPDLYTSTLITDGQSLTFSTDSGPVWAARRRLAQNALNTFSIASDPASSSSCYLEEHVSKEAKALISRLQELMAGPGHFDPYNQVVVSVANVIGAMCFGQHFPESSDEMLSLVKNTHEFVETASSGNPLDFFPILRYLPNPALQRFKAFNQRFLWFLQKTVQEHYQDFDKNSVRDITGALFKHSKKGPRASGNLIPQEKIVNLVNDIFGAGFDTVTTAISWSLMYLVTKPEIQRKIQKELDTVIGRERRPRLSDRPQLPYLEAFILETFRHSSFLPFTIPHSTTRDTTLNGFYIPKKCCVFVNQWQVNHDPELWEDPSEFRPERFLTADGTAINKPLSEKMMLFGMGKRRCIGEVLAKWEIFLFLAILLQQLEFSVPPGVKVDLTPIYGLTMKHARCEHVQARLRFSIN
T4 sequence (P11712 whole entry): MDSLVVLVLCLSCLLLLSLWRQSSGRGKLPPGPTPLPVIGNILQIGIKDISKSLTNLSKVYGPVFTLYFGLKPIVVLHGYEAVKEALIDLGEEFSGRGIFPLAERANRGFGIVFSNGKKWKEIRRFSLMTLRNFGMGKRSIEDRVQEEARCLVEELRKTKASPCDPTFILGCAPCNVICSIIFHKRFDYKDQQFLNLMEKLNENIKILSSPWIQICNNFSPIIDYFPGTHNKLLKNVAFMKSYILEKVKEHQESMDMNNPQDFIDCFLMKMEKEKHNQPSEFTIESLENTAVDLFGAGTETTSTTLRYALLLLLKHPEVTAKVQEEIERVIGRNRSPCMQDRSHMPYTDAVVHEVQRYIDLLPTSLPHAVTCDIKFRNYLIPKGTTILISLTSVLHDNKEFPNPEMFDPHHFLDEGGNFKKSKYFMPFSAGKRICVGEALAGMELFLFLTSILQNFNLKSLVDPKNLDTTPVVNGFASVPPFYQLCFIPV

Compound: CC1CCC2C(C=CC(C)C2C(=O)c2c(O)c(C3(O)CCC(O)C4OC43)cn(O)c2=O)C1 (centres unmarked) [N-hydap, N-Hydroxyapiosporamide]
- UGT1A9 mNA expression ([1]; Kidney): –
- UGT1A9 mNA expression ([1]; Liver): –
- mRNA levels of Ugt1a9 ([1]; mice, 2, 5, 10 mg/kg p.o. 7 days): No significant changes
- contribution of UGT2B7 to formation of N-hydap-G [2]: secondary contributors
- UGT1A9 Enzymatic activity ([3]; Kidney): ↑
- UGT1A9 Enzymatic activity ([3]; Liver): ↓
- reduction of formation rate of Prop-G vs control [3, 9]: 47%
- CYP2C19 Enzymatic activity ([4]; Kidney): –
- CYP2C19 Enzymatic activity ([4]; Liver): ↓
- reduction of formation rate of 4-OH-MP vs control [4, 9]: 33%
- CYP3A4 substrate, experimental results [5]: Yes
- CYP1A2 substrate, experimental results [6]: Yes
- CYP2C9 substrate, experimental results [7]: Yes
- prototype elimination rate [8]: less than 25%
